# “And” between values parts separate entries of the source, which are not always exact repeats. Equal values may be shown once. Read-outs that look alike come from different tables or passages of the source.
# Key:
# [1] = tested on: S. aureus (ATCC 29213); details: Table S3; ref 10 (SI); cited from earlier work
# [2] = tested on: E. coli (ATCC 25922); details: Table S3; ref 10 (SI); cited from earlier work
# [3] = tested on: E. coli D22; details: Table S3; mutation in the lpxC gene that increases membrane permeability; ref 10 (SI); cited from earlier work
# [4] = tested on: E. coli N43 (CGSC no. 5583); details: Table S3; AcrA knockout strain; ref 10 (SI); cited from earlier work
# [5] = tested on: MRSA (QA-11.7); details: Table S3; ref 10 (SI); cited from earlier work
# [6] = tested on: Salmonella alachua RDK 030c (QA-1482/04); details: Table S3; ref 10 (SI); cited from earlier work
# [7] = tested on: Pseudomonas aeruginosa RDK 184 (DSM 939); details: Table S3; ref 10 (SI); cited from earlier work
# [8] = tested on: Streptococcus agalactiae RDK 047 (QA-990/02); details: Table S3; ref 10 (SI); cited from earlier work
# [9] = biological target: T1, S. aureus DNA gyrase (Staphylococcus aureus, UniProt P20831); test: DNA gyrase supercoiling inhibition assay (S. aureus); assay type: biochemical; details: mean of two independent measurements ± SD
# T1 construct: purchased Inspiralis (Norwich, UK)
# T1 sequence (P20831 whole entry, looked up): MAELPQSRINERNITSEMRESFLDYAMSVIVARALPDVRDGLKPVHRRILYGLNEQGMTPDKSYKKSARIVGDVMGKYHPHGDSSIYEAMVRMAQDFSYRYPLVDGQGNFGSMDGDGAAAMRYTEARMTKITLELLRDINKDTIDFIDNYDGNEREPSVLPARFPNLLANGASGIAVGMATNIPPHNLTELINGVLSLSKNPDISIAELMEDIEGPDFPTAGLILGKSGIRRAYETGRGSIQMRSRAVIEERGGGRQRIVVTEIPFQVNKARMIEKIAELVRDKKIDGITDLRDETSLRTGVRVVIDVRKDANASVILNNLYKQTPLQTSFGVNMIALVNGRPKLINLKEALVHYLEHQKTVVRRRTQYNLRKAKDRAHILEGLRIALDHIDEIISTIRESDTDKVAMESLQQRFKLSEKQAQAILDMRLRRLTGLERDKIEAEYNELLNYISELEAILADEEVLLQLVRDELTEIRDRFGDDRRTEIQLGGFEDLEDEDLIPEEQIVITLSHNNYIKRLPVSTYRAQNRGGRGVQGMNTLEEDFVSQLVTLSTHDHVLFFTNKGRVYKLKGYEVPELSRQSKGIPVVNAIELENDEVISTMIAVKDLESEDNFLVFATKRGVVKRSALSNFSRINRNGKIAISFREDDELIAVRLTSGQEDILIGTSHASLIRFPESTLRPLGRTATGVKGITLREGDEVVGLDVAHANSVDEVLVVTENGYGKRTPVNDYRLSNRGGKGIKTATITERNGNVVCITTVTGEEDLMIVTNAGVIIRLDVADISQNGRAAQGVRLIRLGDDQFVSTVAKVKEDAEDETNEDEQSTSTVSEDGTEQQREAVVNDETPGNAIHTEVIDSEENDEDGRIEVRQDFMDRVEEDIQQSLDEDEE
# Procedure: We synthesized and biologically evaluated ten new compounds. We determined their inhibitory activity, expressed as IC50 values, on both Gram-positive S. aureus and Gram-negative E. coli bacterial enzymes (DNA gyrase and topo IV), respectively. The in vitro antibacterial activity, expressed as minimum inhibitory concentration (MIC), was determined against broad spectrum of bacteria, including Gram-positive (Staphylococcus aureus, methicillin-resistant Staphylococcus aureus, Streptococcus agalactiae, and Enterococcus faecalis) and Gram-negative strains (Escherichia coli, Salmonella alachua, Pseudomonas aeruginosa, and Klebsiella pneumoniae), enriched with various MRSA strains resistant to various antibiotics as well as E. coli strains with increased membrane permeability and lack of efflux pump, as well. Furthermore, the selectivity of compounds for bacterial enzyme compared to the orthologous human topoisomerase IIα was also considered. The in vitro safety profile was determined by cytotoxicity assessment on human umbilical vein endothelial cell lines (HUVEC) and HepG2 liver cancer cell lines.
# Determination of DNA gyrase and topoisomerase IV inhibitory activities
# To determine the IC50 values of the compounds, a Gyrase Supercoiling High Throughput Plate assay kit and a TopoIV Relaxation High Throughput Plate assay kit, commercially available from Inspiralis (Norwich, UK), were used for S. aureus and E. coli. The assays were performed on black streptavidin-coated 96-well microtiter plates (Thermo Scientific Pierce, Norwich, UK) and the wells were first […]
# BSA and 0.05% [v/v] Tween-20). Biotinylated oligonucleotide diluted with the wash buffer was then immobilized in each well and the excess was removed with the wash buffer. 1.5 U of the enzyme S. aureus or E. coli DNA gyrase (topoIV) was incubated together with 0.75 μg of relaxed (supercoiled) pNO1 plasmid as substrate in the presence of 3 μl inhibitor solution in 10% DMSO and 0.008% Tween-20 at 37°C for 30 min in a final reaction volume of 30 μl in the assay buffer (S. aureus DNA gyrase: 40 mM HEPES.KOH (pH 7.6), 10 mM magnesium acetate, 10 mM DTT, 2 mM ATP, 500 mM potassium glutamate and 0.05 mg/ml albumin; E. coli DNA gyrase: 35 mM Tris.HCl (pH 7.5), 24 […]
# mg/ml albumin; S. aureus topo IV: 50 mM Tris.HCl (7.5), 5 mM MgCl 2, 5 mM DTT, 1.5 mM ATP, 350 mM potassium glutamate and 0.05 mg/ml albumin; E. coli topo IV: 40 mM HEPES.KOH (pH 7.6), 100 mM potassium glutamate, 10 mM magnesium acetate, 10 mM DTT, 1 mM ATP and 50 μg/ml albumin). The reaction was stopped by adding the TF buffer (50 mM NaOAc (pH 4.7), 50 mM NaCl and 50 mM MgCl2) to allow triplex formation (biotin oligonucleotide plasmid) for another 30 min. Finally, the unbound plasmid was washed off using the TF buffer and the Promega Diamond dye was added to T10 buffer (10 mM Tris-HCl (pH 8.0), 1 mM EDTA) solution. After 15 min the solution […]
# Two inhibitor concentrations of 100 and 1 μM were used for pre-screening. The IC 50 values […]
# (IC50) was calculated by nonlinear regression-based fitting of the inhibition curves using the log [inhibitor] versus response-variable slope (four parameters) – symmetrical equation, in GraphPad Prism 6.0 software (GraphPad Software, CA, USA). The IC50 value represents the average of two independent measurements.
# The minimum inhibitory concentrations (MICs) were determined using the broth micro-dilution method in 96-well plate format according to the Clinical and Laboratory Standards Institute
# [10] = biological target: T2, S. aureus topoIV (Staphylococcus aureus, UniProt Q2FYS4); test: TopoIV decatenation inhibition assay (S. aureus); assay type: biochemical; details: read-out: IC50 TopoIV S. aureus, mean of two independent measurements ± SD
# T2 construct: purchased Inspiralis (Norwich, UK)
# T2 sequence (Q2FYS4 whole entry, looked up): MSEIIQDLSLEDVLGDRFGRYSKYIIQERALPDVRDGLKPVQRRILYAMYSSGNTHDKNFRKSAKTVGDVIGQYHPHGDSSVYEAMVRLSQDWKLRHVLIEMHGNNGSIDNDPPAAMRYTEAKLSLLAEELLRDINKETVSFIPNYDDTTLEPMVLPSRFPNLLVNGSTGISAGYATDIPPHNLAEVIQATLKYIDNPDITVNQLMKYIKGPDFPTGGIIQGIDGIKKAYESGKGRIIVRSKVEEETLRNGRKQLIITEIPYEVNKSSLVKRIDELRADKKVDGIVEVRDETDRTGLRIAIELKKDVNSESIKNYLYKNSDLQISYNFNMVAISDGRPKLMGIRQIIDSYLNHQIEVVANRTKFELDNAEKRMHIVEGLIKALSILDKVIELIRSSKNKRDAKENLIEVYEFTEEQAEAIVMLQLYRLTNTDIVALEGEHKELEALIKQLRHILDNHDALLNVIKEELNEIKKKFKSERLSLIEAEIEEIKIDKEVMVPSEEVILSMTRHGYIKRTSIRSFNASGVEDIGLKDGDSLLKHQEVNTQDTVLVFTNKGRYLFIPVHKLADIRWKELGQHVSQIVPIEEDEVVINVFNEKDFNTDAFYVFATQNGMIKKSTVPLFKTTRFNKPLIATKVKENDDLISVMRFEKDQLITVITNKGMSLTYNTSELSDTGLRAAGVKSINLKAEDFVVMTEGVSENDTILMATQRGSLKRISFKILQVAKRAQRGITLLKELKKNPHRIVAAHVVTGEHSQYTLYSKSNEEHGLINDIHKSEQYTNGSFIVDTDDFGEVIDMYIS
# [11] = biological target: Human topoisomerase IIα (Homo sapiens, UniProt P11388); test: Human topoisomerase IIα residual activity; assay type: biochemical; details: read-out: Human topoisomerase IIα (%RA)
# Human topoisomerase IIα, sequence (P11388 whole entry): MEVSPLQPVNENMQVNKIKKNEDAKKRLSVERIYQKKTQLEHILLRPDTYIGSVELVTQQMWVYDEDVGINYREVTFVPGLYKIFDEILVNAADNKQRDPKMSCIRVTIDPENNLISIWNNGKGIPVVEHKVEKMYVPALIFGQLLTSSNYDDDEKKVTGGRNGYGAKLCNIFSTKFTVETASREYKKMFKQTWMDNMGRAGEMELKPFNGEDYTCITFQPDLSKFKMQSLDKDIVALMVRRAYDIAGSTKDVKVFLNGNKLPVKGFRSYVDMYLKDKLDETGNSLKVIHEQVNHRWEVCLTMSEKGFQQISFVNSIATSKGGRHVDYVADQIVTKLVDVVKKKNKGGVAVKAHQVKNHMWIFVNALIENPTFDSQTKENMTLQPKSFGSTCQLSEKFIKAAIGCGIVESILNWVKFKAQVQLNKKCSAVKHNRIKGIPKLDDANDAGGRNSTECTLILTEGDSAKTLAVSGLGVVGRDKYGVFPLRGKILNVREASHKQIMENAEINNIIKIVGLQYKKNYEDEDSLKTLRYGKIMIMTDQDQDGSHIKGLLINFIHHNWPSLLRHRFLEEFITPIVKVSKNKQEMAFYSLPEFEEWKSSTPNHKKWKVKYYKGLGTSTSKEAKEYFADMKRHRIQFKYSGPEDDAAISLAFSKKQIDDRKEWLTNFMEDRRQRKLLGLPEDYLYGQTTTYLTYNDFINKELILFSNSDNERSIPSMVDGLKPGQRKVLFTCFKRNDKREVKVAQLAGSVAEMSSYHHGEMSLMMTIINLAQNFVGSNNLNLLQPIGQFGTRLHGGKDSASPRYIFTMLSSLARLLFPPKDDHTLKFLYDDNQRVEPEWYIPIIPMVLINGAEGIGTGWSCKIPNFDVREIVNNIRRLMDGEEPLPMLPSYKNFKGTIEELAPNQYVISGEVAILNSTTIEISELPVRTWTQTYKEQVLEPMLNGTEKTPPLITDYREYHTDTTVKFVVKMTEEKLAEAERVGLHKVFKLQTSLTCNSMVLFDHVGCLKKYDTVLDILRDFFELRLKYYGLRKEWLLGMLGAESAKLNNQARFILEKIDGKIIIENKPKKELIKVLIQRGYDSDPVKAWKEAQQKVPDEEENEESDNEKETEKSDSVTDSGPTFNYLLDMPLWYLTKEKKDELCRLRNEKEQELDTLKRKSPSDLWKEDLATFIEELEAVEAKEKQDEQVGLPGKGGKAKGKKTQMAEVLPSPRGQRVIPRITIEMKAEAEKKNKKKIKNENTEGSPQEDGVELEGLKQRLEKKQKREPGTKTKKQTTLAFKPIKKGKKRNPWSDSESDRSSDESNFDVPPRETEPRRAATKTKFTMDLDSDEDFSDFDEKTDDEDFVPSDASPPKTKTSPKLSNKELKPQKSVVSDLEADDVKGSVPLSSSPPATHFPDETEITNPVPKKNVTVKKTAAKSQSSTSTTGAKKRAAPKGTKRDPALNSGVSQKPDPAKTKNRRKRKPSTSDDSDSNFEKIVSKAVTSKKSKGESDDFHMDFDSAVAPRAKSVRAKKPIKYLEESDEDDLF
# [12] = tested on: E. coli (ATCC 25922); test: microbe, parasite or virus in culture; details: Escherichia coli, ATCC25922, read-out: MIC E. coli (ATCC 25922)
# Procedure: (§1) The in vitro antibacterial activity, expressed as minimum inhibitory concentration (MIC), was determined against broad spectrum of bacteria, including Gram-positive (Staphylococcus aureus, methicillin-resistant Staphylococcus aureus, Streptococcus agalactiae, and Enterococcus faecalis) and Gram-negative strains (Escherichia coli, Salmonella alachua, Pseudomonas aeruginosa, and Klebsiella pneumoniae), enriched with various MRSA strains resistant to various antibiotics as well as E. coli strains with increased membrane permeability and lack of efflux pump, as well. […]
# (§2) The minimum inhibitory concentrations (MICs) were determined using the broth micro-dilution method in 96-well plate format according to the Clinical and Laboratory Standards Institute […]
# (§3) guidelines8 and European Committee on Antimicrobial Susceptibility Testing recommendations9. The bacterial suspension of the specific bacterial strain equivalent to the 0.5 McFarland turbidity standard was diluted with cation-adapted Mueller Hinton broth with TES (Thermo Fisher Scientific) to obtain a […]
# (§4) The compounds dissolved in DMSO and inoculum were mixed together and incubated for 20 h at 35 °C.
# [13] = tested on: E. coli D22; test: microbe, parasite or virus in culture; details: Escherichia coli
# Procedure: as §1, §2, §3, §4
# [14] = tested on: E. coli N43 (CGSC no. 5583); test: microbe, parasite or virus in culture; details: Escherichia coli
# Procedure: as §1, §2, §3, §4
# [15] = tested on: Enterococcus faecalis DRK 057 (ATCC 29212); test: microbe, parasite or virus in culture
# Procedure: as §1, §2, §3, §4
# [16] = tested on: Klebsiella pneumoniae; test: microbe, parasite or virus in culture
# Procedure: as §1, §2, §3, §4
# [17] = tested on: MRSA (QA-11.7); test: microbe, parasite or virus in culture; details: Staphylococcus aureus, read-out: MIC MRSA (QA-11.7)
# Procedure: as §1, §2, §3, §4
# [18] = tested on: MRSA (QA-12.1); test: microbe, parasite or virus in culture; details: Staphylococcus aureus, read-out: MIC MRSA (QA-12.1)
# Procedure: as §1, §2, §3, §4
# [19] = tested on: Pseudomonas aeruginosa RDK 184 (DSM 939); test: microbe, parasite or virus in culture
# Procedure: as §1, §2, §3, §4
# [20] = tested on: S. aureus (ATCC 29213); test: microbe, parasite or virus in culture; details: Staphylococcus aureus, ATCC29213, read-out: MIC S. aureus (ATCC 29213)
# Procedure: as §1, §2, §3, §4
# [21] = tested on: Salmonella alachua RDK 030c (QA-1482/04); test: microbe, parasite or virus in culture
# Procedure: as §1, §2, §3, §4
# [22] = tested on: Streptococcus agalactiae RDK 047 (QA-990/02); test: microbe, parasite or virus in culture
# Procedure: as §1, §2, §3, §4
# [23] = read-out: MIC E. coli N43 (CGSC no. 5583)
# [24] = read-out: MIC E. coli N43 (CGSC# 5583)
# [25] = ATCC29212, read-out: MIC E. faecalis DRK 057 (ATCC 29212)
# [26] = ATCC29212, read-out: MIC Enterococcus faecalis DRK 057 (ATCC 29212)
# [27] = read-out: MIC Klebsiella pneumoniae
# [28] = DSM939, read-out: MIC P. aeruginosa RDK 184 (DSM 939)
# [29] = DSM939, read-out: MIC Pseudomonas aeruginosa RDK 184 (DSM 939)
# [30] = read-out: MIC S. alachua RDK 030c (QA-1482/04)
# [31] = read-out: MIC Salmonella alachua RDK 030c (QA-1482/04)
# [32] = read-out: MIC S. agalactiae RDK 047 (QA-990/02)
# [33] = read-out: MIC Streptococcus agalactiae RDK 047 (QA-990/02)
Compound,IC50 [9] [µM],MIC [12],"MIC ([13]; D22, read-out: MIC E. coli D2) [µM]","MIC ([13]; D22, read-out: MIC E. coli D22) [mg/L]","MIC [14, 23] [mg/L]","MIC [14, 24] [µM]","MIC [15, 25] [µM]","MIC [15, 26] [mg/L]",MIC ([16]; read-out: MIC K. pneumoniae) [µM],"MIC [16, 27] [mg/L]",MIC [17],MIC [18],"MIC [19, 28] [µM]","MIC [19, 29] [mg/L]",MIC [20],"MIC [21, 30] [µM]","MIC [21, 31] [mg/L]","MIC [22, 32] [µM]","MIC [22, 33] [mg/L]",other results
COc1ccc2nccc(CCN3CCC(NCc4ccc(I)cc4)CC3)c2n1 [Compound 3],,,,,,,,,,,,,,,,,,,,MIC S. aureus (ATCC 29213) [1]: 0.016 µM; MIC E. coli (ATCC 25922) [2]: 3.98 µM; MIC E. coli D2 [3]: 0.249 µM; MIC E. coli N43 (CGSC# 5583) [4]: 0.155 µM; MIC MRSA (QA-11.7) [5]: 0.016 µM; MIC S. alachua RDK 030c (QA-1482/04) [6]: 15.9 µM; MIC P. aeruginosa RDK 184 (DSM 939) [7]: 63.7 µM; MIC S. agalactiae RDK 047 (QA-990/02) [8]: 0.249 µM
COc1ccc2nccc(CCN3CCC(NCc4ccc(I)c(F)c4)CC3)c2n1 [Compound 6],0.004,0.961 µM and 0.5 µg/mL,0.119,0.062,0.016,0.031,0.48,0.25,15.4,8,0.031 µM and 0.016 µg/mL,0.031 µM and 0.016 µg/mL,30.7,16,0.015 µM and 0.008 µg/mL,3.84,2,0.48,0.25,IC50 [10]: 0.09 ± 0.102 µM; remaining activity at 10 µM [11]: 97.7 ± 1.31%
COc1ccc2nccc(CCN3CCC(NCc4ccc(Cl)cn4)CC3)c2n1 [Compound 13],0.123 ± 0.019,77.7 µM and 32 µg/mL,38.8,16,8,19.4,9.71,4,> 311,> 128,0.607 µM and 0.25 µg/mL,0.607 µM and 0.25 µg/mL,> 311,> 128,0.303 µM and 0.125 µg/mL,> 311,> 128,19.4,8,"remaining activity at 10 µM ([11]; residual activity at 10 μM compound, mean ± SD, two independent experiments): 99.36 ± 0.34%"
